Assay results taken from patent US11318103B2, “Treating soft tissue via controlled drug release” (University of Pittsburgh—Of the Commonwealth System of …, priority 2014, dated 2022).

Legend:
[1] = test system: human osteochondral plugs; test: T3-induced calcification of human osteochondral plugs (ALP assay, real time-PCR); type: cell-based; settings: treatment with triiodothyronine (T3), day 0 versus day 20
Description: FIG. 5 represents the outline for testing of preventing calcification. Experimental design to test the effects of triiodothyronine in inducing calcification and of dorsomorphin in inhibiting calcification in human osteochondral biopsies, an example of which is depicted on the right.
FIG. 6 is two graphs depicting ALP activity. The graphs represent the level of ALP activity in the osteochondral constructs media measured with a colorimetric ALP assay for the samples outlined in the previous figure.
Dorsomorphin has been encapsulated in PLGA-based MPs of micrometer scale dimensions. As the particles degrade, dorsomorphin is released generating a local concentration within the range required to prevent local calcification. To confirm this, human osteochondral plugs (3 mm by 3 mm by 8 mm of a cartilage and bone biopsy-like sample) have been forced to calcify using triiodothyronine (T3) and then exposed to dorsomorphin.

[2] = test system: human chondrocytes; test: T3-induced hypertrophy of primary chondrocytes; type: cell-based; settings: T3 medium 14 or 21 days, maintained after exposure to chondrogenic medium
Description: FIGS. 7A-7F are microphotographs of human chondrocytes. Chondrocytes extracted from human donors have been cultured under a test medium to induce hypertrophy for 14 or 21 days followed by 14 or 7 days of chondrogenic medium, respectively. The test medium was either chondrogenic medium (negative control, no hypertrophy), medium containing triiodothyronine (T3) (hypertrophic), osteogenic medium (hypertrophic).
In autologous chondrocytes implantation (ACI) chondrocytes are implanted in a local cartilage defect. In an in vitro model of ACI based on a small osteochondral unit, as the one we use, a central cartilage defect would be filled with chondrocytes in a hydrogel. To simulate conditions of calcification, the chondrocytes will be pre-cultured in a hypertrophy inducing medium. After seeding, both native cartilage and implanted chondrocytes would be exposed to chondrogenic medium. We have previously shown that T3 induces hypertrophy in MSCs that underwent chondrogenic differentiation. […] Chondrogenic medium and osteogenic medium are used as comparison.

**Q.** How did the “ALP activity in osteochondral constructs media” value [1] turn out when `N[C@@H](Cc1cc(I)c(Oc2ccc(O)c(I)c2)c(I)c1)C(=O)O` [triiodothyronine] was run?
**A.** statistically significant (p<0.05) increase in ALP activity

**Q.** What about the primary chondrocytes hypertrophy [2] of the same compound?
**A.** effective to induce primary chondrocytes hypertrophy
